{"source": "patent US20130122541A1", "about": "“MICROORGANISM PRODUCTION OF HIGH-VALUE CHEMICAL PRODUCTS, AND RELATED COMPOSITIONS, METHODS AND SYSTEMS” (The Regents of the University of Colorado, priority 2010, published 2013)", "key": {"[1]": {"system": "MACH1-T1R", "experiment": "MIC, microaerobic 96 well-plate, MOPS minimal media, IroK expression studies (Example 45)", "type": "cell-based, E. coli", "settings": "for MIC of other organic acids of similar molecular makeup on IroK expression: IroK expressed from pKK223-3", "description": "The two oligonucleotides were added in a 1:1 ratio and annealed according to standard methodology in a thermal cycler. Ligation of the annealed primer product with the pKK223-3 expression vector (SEQ ID NO:008, Pharmacia, Piscataway, N.J.) was performed with T4 Ligase (Invitrogen, Carlsbad, Calif.) and incubated at 25° C. overnight. The ligation product was then electroporated into competent MACH1™-T1^R, plated on LB+ampicillan, and incubated at 37° C. for 24 hours. Plasmids were isolated and confirmed by purification and subsequent restriction digest and sequencing (Macrogen, Rockville, Md.). MICs were then determined corresponding to 1 mM IPTG induction.\nThe minimum inhibitory concentration (MIC) was determined microaerobically in a 96 well-plate format. Overnight cultures of strains were grown in 5 mL LB (with antibiotic where appropriate). A 1% (v/v) inoculum was introduced into a 15 ml culture of MOPS minimal media. After the cells reached mid-exponential phase, the culture was diluted to an OD600 of 0.200. The cells were further diluted 1:20 and a […] aliquot was used to inoculate each well of a 96 well plate (˜10^4 cells per well)."}, "[2]": {"system": "E. coli K12", "experiment": "microbe, parasite or virus in culture", "settings": "Escherichia coli, K12, 24 h, read-out: Minimum inhibitory concentration (MIC) of 3-HP for E. coli K12 in M9 minimal media supplemented with the substance"}, "[3]": {"system": "B. subtilis", "experiment": "MIC evaluation of 3-HP, B. subtilis aerobic, M9 media + glutamate, 96 well-plate, 24 h (Common Methods)", "type": "cell-based", "description": "For MIC evaluations, the final results are expressed in chemical agent concentrations determined by analysis of the stock solution by HPLC (i.e., see Subsection IIIb).\nThe minimum inhibitory concentration (MIC) was determined aerobically in a 96 well-plate format. […] Media supplements were added according to levels reported in the Supplements Table where specified. Overnight cultures of strains were grown in triplicate in 5 mL LB (with antibiotic where appropriate). A 1% (v/v) inoculum was introduced into a 5 ml culture of M9 minimal media+glutamate."}, "[4]": {"system": "BX3_0206", "experiment": "3-HP production by BX3_0206 in SM3 medium without and with 10 μg/ml cerulenin", "type": "cell-based, E. coli", "description": "All data are the average of triplicate cultures. […] Under these conditions, the specific productivity after 24 hours is […] 3HP per gDCW."}, "[5]": {"system": "BX3_0195", "experiment": "3-HP production by BX3_0195 in SM3 medium without and with 10 μg/ml cerulenin", "type": "cell-based, E. coli", "method": "Cultures were started from freezer stocks by standard practice (Sambrook and Russell, 2001) into 50 mL of LB media plus 100 μg/mL ampicillin and grown to stationary phase overnight at 37° C. with rotation at 225 rpm. Five ml of this culture were transferred to 100 ml of SM3 media plus 40 g/L glucose, 100 μg/ml ampicillin, and 1 mM IPTG in triplicate 250-ml baffled flasks and incubated at 37° C., 225 rpm. […] Dry cell weight (DCW) is calculated as 0.33 times the measured OD600 value, based on baseline DCW to OD600 determinations. All data are the average of triplicate cultures."}, "[6]": {"system": "BX3_0194", "experiment": "3-HP production by BX3_0194 in SM3 medium without and with 10 μg/ml cerulenin", "type": "cell-based, E. coli", "description": "All data are the average of triplicate cultures.\nUnder these conditions, the specific productivity after 24 hours is 1.3 g 3HP per gDCW."}, "[7]": {"system": "E. coli Mach1-T1R", "experiment": "MIC of 3-HP, microaerobic 96 well-plate, MOPS minimal media with supplements (Example 36)", "type": "cell-based, Escherichia coli", "settings": "increase of the 3-HP MIC, 24 h", "description": "3-HP was obtained from TCI America (Portland, Oreg.). Significant acrylic acid and 2-oxydipropionic contamination was observed via HPLC analysis. Samples were subsequently treated by diethyl ether extraction to remove acrylic acid and a portion of the 2-oxydipropionic contaminants. Samples were then neutralized with 10 M NaOH to a final pH of 7.0. […] The working stock solution was used for the selection, growth rates and MIC evaluations in this example.\nOvernight cultures of strains were grown in 5 ml LB (with antibiotic where appropriate). A 1 v/v % was used to inoculate a 15 ml conical tube filled to the top with MOPS minimal media and capped. After the cells reached mid exponential phase, the culture was diluted to an OD600 of 0.200. The cells were further diluted 1:20 and a 10 ul aliquot was used to inoculate each well (˜10^4 cells per well)."}, "[8]": {"system": "E. coli K12", "settings": "aerobic, 24 h; putrescine, cadaverine, spermidine 0.1 g/L, sodium bicarbonate 20 mM; value is the 3-HP concentration"}, "[9]": {"settings": "24 hr, SM3 medium, presence of 10 μg/ml cerulenin"}}}
{"molecule": "C=CC(=O)O", "note": "[acrylic, acrylic acid]", "values": [{"measurement": "MIC of other organic acids of similar molecular makeup on IroK expression", "setting": "[1]", "value": "unchanged"}]}
{"molecule": "NCCCCNCCCN", "note": "[spermidine]", "values": [{"measurement": "MIC", "setting": "[2]", "value": 40, "unit": "mg/mL"}, {"measurement": "Avg 24 hr ΔOD600", "setting": "[3]; 3HP tolerance, B. subtilis 168, M9 + glu + trp plus the named supplement(s)", "value": 0.09}, {"measurement": "% Increase Over Control", "setting": "[3]; ΔOD600 with named supplement(s) vs B. subtilis 168 without supplement", "value": 140, "unit": "%"}]}
{"molecule": "MKPALRDFIAIVQERLASVTA [IroK]", "values": [{"measurement": "fold increase in MIC of 3-HP on increased expression of IroK", "setting": "[1]; expressed from pKK223-3, 1 mM IPTG, microaerobic, MOPS minimal media, 24 h", "value": "> 2", "unit": "fold"}]}
{"molecule": "CC(=O)O", "note": "[acetic, acetic acid]", "values": [{"measurement": "MIC of other organic acids of similar molecular makeup on IroK expression", "setting": "[1]", "value": "unchanged"}]}
{"molecule": "C/C=C/C/C=C/CCC(=O)[C@H]1O[C@H]1C(N)=O", "note": "[cerulenin]", "values": [{"measurement": "3HP", "setting": "[4]; [9]", "value": 0.43, "unit": "g/L"}, {"measurement": "OD600", "setting": "[4]; [9]", "value": 6.4}, {"measurement": "specific productivity after 24 hours", "setting": "[4]; BX3_0206, SM3 medium, 10 μg/ml cerulenin", "value": 0.20, "unit": "g 3HP per gDCW"}, {"measurement": "specific productivity after 24 hours", "setting": "[5]", "value": 0.54, "unit": "g 3HP per gDCW"}, {"measurement": "3HP", "setting": "[5]; 4 hr", "value": 0.003, "unit": "g/L"}, {"measurement": "OD600", "setting": "[5]; 4 hr", "value": 0.97}, {"measurement": "3HP", "setting": "[5]; 6 hr", "value": 0.07, "unit": "g/L"}, {"measurement": "OD600", "setting": "[5]; 6 hr", "value": 1.57}, {"measurement": "3HP", "setting": "[5]; 8 hr", "value": 0.31, "unit": "g/L"}, {"measurement": "OD600", "setting": "[5]; 8 hr", "value": 2.36}, {"measurement": "3HP", "setting": "[5]; 24 hr", "value": 1.17, "unit": "g/L"}, {"measurement": "OD600", "setting": "[5]; 24 hr", "value": 6.59}, {"measurement": "specific productivity after 24 hours", "setting": "[6]", "value": 1.3, "unit": "g 3HP per gDCW"}, {"measurement": "3HP", "setting": "[6]; 4 hr", "value": 0.003, "unit": "g/L"}, {"measurement": "OD600", "setting": "[6]; 4 hr", "value": 1.3}, {"measurement": "3HP", "setting": "[6]; 6 hr", "value": 0.14, "unit": "g/L"}, {"measurement": "OD600", "setting": "[6]; 6 hr", "value": 2.6}, {"measurement": "3HP", "setting": "[6]; 8 hr", "value": 0.43, "unit": "g/L"}, {"measurement": "OD600", "setting": "[6]; 8 hr", "value": 3.1}, {"measurement": "3HP", "setting": "[6]; 24 hr", "value": 1.43, "unit": "g/L"}, {"measurement": "OD600", "setting": "[6]; 24 hr", "value": 3.3}]}
{"molecule": "NCCCCCN", "note": "[cadaverine]", "values": [{"measurement": "MIC", "setting": "[2]", "value": 30, "unit": "mg/mL"}]}
{"molecule": "CCC(=O)C(=O)O", "note": "[oxobutanoate]", "values": [{"measurement": "MIC increase resulting from supplementation", "setting": "[7]", "value": 7, "unit": "%"}]}
{"molecule": "C[C@@H](O)[C@H](N)C(=O)O", "note": "[threonine]", "values": [{"measurement": "MIC increase resulting from supplementation", "setting": "[7]", "value": 3, "unit": "%"}]}
{"molecule": "CC(O)C(=O)O", "note": "(centres unmarked) [lactic, lactic acid]", "values": [{"measurement": "MIC of other organic acids of similar molecular makeup on IroK expression", "setting": "[1]", "value": "unchanged"}]}
{"molecule": "Cl.NC1CCSC1=O", "note": "(centres unmarked) [homocysteine thiolactone hydrochloride]", "values": [{"measurement": "MIC increase resulting from supplementation", "setting": "[7]", "value": 60, "unit": "%"}]}
{"molecule": "N[C@@H](Cc1ccc(O)cc1)C(=O)O", "note": "[tyrosine]", "values": [{"measurement": "MIC increase resulting from supplementation", "setting": "[7]", "value": 40, "unit": "%"}]}
{"molecule": "N[C@@H](Cc1ccccc1)C(=O)O", "note": "[phenylalanine]", "values": [{"measurement": "MIC increase resulting from supplementation", "setting": "[7]", "value": 33, "unit": "%"}]}
{"molecule": "NCCCCN", "note": "[putrescine]", "values": [{"measurement": "MIC", "setting": "[2]", "value": 40, "unit": "mg/mL"}]}
{"molecule": "O=C([O-])O.[Na+]", "note": "[sodium bicarbonate]", "values": [{"measurement": "Minimum inhibitory concentration (MIC) of 3-HP for E. coli K12 in M9 minimal media supplemented with the substance", "setting": "[8]", "value": 30, "unit": "mg/mL"}]}
{"molecule": "N[C@@H](CCO)C(=O)O", "note": "[homoserine]", "values": [{"measurement": "MIC increase resulting from supplementation", "setting": "[7]", "value": 33, "unit": "%"}]}
{"molecule": "Cc1ncc(CO)c(CO)c1O.Cl", "note": "[pyridoxine hydrochloride]", "values": [{"measurement": "MIC increase resulting from supplementation", "setting": "[7]", "value": 0, "unit": "%"}]}
